According to a melting point compilation (Tetko et al.; mined from patent text by program, amines drawn as free bases though some values may be those of a salt):

Structure (SMILES) | melting point [°C]
Oc1ccc2c(c1)CCCC(c1ccccc1)=C2c1ccc(OCCCCCCSCc2ccccn2)cc1 | 127
CN(C)N1CSC(=Cc2cc(C(C)(C)C)c(O)c(C(C)(C)C)c2)C1=O | 138 to 141
COc1cc(C=O)c(C=O)cc1OCCCl | 113 to 114
Cc1c(-c2ccccc2)oc2c(CNC(=O)CCl)cccc2c1=O | 152 to 155
CCOC(=O)CCOc1cccc2c1CCCC2=O | 57 to 59
CCCCCc1ncc([C@H]2CC[C@H](CCC)CC2)cn1 | 33
COCCc1ncc(CO)c(NCc2ccc(-c3ccccc3-c3nnnn3C(c3ccccc3)(c3ccccc3)c3ccccc3)cc2)n1 | 118 to 120
O=C(Cc1ccc(Cc2ccc(F)cc2)o1)C(=O)c1ccc[nH]1 | 96 to 98
CN(C)CC(=O)N1CC(=Cc2ccccc2)C2=NN(C)C(c3ccccc3)C2C1 (stereo unspecified) | 132 to 134
CN1CCN(C(c2ccccc2)c2ccccc2)CC1(C)Cc1ccc2c(c1)OCCO2 (stereo unspecified) | 118 to 120
COc1ccc2c(c1)[C@H](CO)OC2=O | 137 to 140
CCOC(=O)N1CCC2C(O)CCCC21 (stereo unspecified) | 153 to 155
CCSN(C)C(=O)Nc1ccc(Br)cc1 | < 50
CC(C)c1cccc(C(C)C)c1NC(=O)[C@H](Cc1ccccc1)NC(=O)OCC1c2ccccc2-c2ccccc21 | 210 to 212
CCCC1=C(C#N)C(c2ccccc2Cl)c2c(n[nH]c2C(C)(C)C)N1 (stereo unspecified) | > 270
CCCC1=C(C)C(=O)c2c(oc(Cc3ccc(OC)cc3)c2C)C1=O | 60 to 61
Clc1cccc(N2CCN(Cc3ccc(-c4ccccc4)s3)CC2)c1 | 115
O=C1c2c(-c3ccccc3F)noc2CCC1CCCN1CCN(C(c2ccc(F)cc2)c2ccc(F)cc2)CC1 (stereo unspecified) | 95 to 97
COc1ccc(C2Sc3c(ccc4ccccc34)N(CCN(C)C)C(=O)C2OC(=O)c2ccc(OC)c(OC)c2)cc1 (stereo unspecified) | 182 to 183
CCN1CCN(Cc2cc(C)c3c(c2)-c2[nH]nc(-c4ccsc4)c2C3)CC1 | 230 to 231
C[C@@H](Cc1c2n(c3ccc(OC4CC4)cc13)CCC2)NC(=O)OC(C)(C)C | 83 to 84
NC1(C(=O)O)CC(O)C2C(C(=O)O)C21 (stereo unspecified) | 78 to 80
O=[N+]([O-])c1c(Br)cccc1CS(=O)(=O)c1ccccc1 | 138 to 141
Nc1ncnc2c1ncn2C1CCC(O)C1O (stereo unspecified) | 201 to 202
CNCC1(C)Cc2cc(NC)c3c(c2C(c2ccccc2)=N1)CC(C)(C)O3 (stereo unspecified) | 126 to 128
CC(C)(O)C#Cc1ccc2c(c1)NC(=O)CC(c1cccc(C#N)c1)=N2 | 243

Structure (SMILES) | melting point [°C]
COc1ccc(C=CCCCCOc2ccc(S(=O)(=O)c3cccc(C(=O)O)c3)cc2CCC(=O)O)cc1 | 145 to 148
CCCCc1nc(CO)c(C(=O)NCC(=O)O)n1Cc1ccc(-c2ccccc2C(=O)O)cc1 | > 110
Cc1ccc(C(C)(C)CCCCC(=O)O)cc1C | 71 to 73
CCCC[C@@H]1CCc2ccc(OCc3ccc4ccccc4n3)cc2[C@H]1O | 58 to 59
CCCCc1nnc(SCC2CCCCC2)n1Cc1ccc(-c2ccccc2-c2nnn[nH]2)cc1 | 89 to 91
C=CCNc1nc(NCC)nc2ccc([N+](=O)[O-])cc12 | 227 to 228
CC(C)(C)OC(=O)C(Nc1ccccc1)c1ccccc1Cl (racemic) | 74
Cc1ccc(Br)c(S(=O)O)c1 | 120 to 122
O=C(O)c1cn(-c2ccc(Cl)cc2)c2c(F)c(F)c(F)cc2c1=O | 117 to 118
CCCCCCCCc1c(C)nc2cc(C)nn2c1N | 169
N#Cc1ccc(CCO)nc1 | 92 to 93
Cc1ccc(-c2nc(Sc3ccc(Cl)cc3)cc(N3CCN(CCO)CC3)n2)cc1 | 123 to 125
CN1C(=O)C(c2ccc(OC(F)F)cc2)(c2cccc(OCCC=C(F)F)c2)N=C1N (stereo unspecified) | 127 to 128
Cn1cc(Br)cc([N+](=O)[O-])c1=O | 122 to 123
CNC(=S)n1nc(NC(C)=O)nc1N | > 300
CC1(C)Oc2ccc(-c3c(NCCO)c(=O)c3=O)cc2[C@@H](N2Cc3ccccc3C2=O)[C@@H]1O (relative stereo) | 205 to 215
CCCCCN1C(=O)C(CCC(=O)OC)(NC(=O)C2CCc3ccccc3C2)c2ccccc21 (stereo unspecified) | 172 to 179
O=C(C(c1ccc(Cl)cc1)c1c(Cl)cc(-n2ncc(=O)[nH]c2=O)cc1Cl)N1CCCC1 (stereo unspecified) | 154
Cc1nccn1CCCCc1ccc(OCc2coc(/C=C/c3ccccc3)n2)cc1 | 122 to 123
O=C(Nc1ccc2nc(CN3CCCC3)ccc2c1)N1CCC(c2ccccc2)CC1 | 187 to 189
COc1cc2c(cc1OCc1ccccc1)CN(Cc1ccccc1)C2 | 94 to 96
COc1cc(F)ccc1C(C)(C)CC#N | 80 to 83
COC(=O)c1c(C)cc(-c2ccccc2)nc1-c1cccc([N+](=O)[O-])c1 | 105 to 106
Nc1nc2[nH]c(CCC#Cc3cscc3C(=O)N[C@@H](CCC(=O)O)C(=O)O)cc2c(=O)[nH]1 | 181 to 182
CCCCCCCCCCCCCCCCCCC(=O)Nc1ccn(C2OC(CO)C(O)C2O)c(=O)n1 (stereo unspecified) | 139 to 142
O=C(Nc1cccc(NC(=O)c2ccc(O)cc2)c1)c1ccc(O)cc1 | 250

Structure (SMILES) | melting point [°C]
Cc1ncc2n1-c1ccc(Cl)cc1C(c1ccccc1F)N(O)C2 (stereo unspecified) | 246 to 248
CC1(C(=O)c2c[nH]c3ncc(-c4cccc(N5CCOCC5)c4)nc23)CCCCC1 | 208 to 209
Cc1cc(C)cc(Sc2c(CC#N)nc(C)n2C)c1 | 81 to 82
CC(C)(C)c1cc(C(O)C#Cc2ccc(C(=O)O)cc2)cc(C(C)(C)C)c1OCOCC[Si](C)(C)C (stereo unspecified) | 155 to 156
COc1cc(C(O)C#Cc2c(C)nc(N)nc2N)cc(OC)c1OC (stereo unspecified) | 174 to 176
CC(=O)C(=O)C(=O)OC(C)(C)C | 62 to 66
Cc1nc2c3c(c(CO)cc2n1C)CCC(c1ccccc1)O3 (stereo unspecified) | 279 to 281
Cc1cc(COc2cccc3c2CN(C2CCC(=O)NC2=O)C3=O)nn1C (stereo unspecified) | 214 to 216
O=C=Nc1ccc(Oc2cc(Cl)ncn2)cc1 | 103
Nc1cc(C(F)(F)C(F)(F)F)no1 | 86 to 87
CCCCCCCCCCCCCCNC(=O)Oc1ccc([N+](=O)[O-])cc1OC(=O)NCCCCCCCCCCCCCC | 100 to 104
OCCCc1ccc(SCc2coc(/C=C/c3ccccc3)n2)cc1 | 91 to 92
CNC(=O)NCc1cncn1C1c2ccccc2CCC1(C)C (stereo unspecified) | 120
CCCCCS(=O)(=O)NC(=O)CCc1ccc(OCCOC)cc1OCC1CCCO1 (stereo unspecified) | 57.8 to 58.9
COc1ccccc1NC(=O)Nc1ncnc(Nc2ccccc2-c2ccccc2)n1 | 219
N#Cc1ccccc1-c1ccc2[nH]ncc2c1 | 163 to 170
O=C(O)c1c2n(c3cc(N4CCNCC4)c(F)cc3c1=O)C(c1ccccc1)S2 (stereo unspecified) | 200 to 205
C#CCOc1cc(-n2c(=O)cc(C(F)(F)F)[nH]c2=O)ccc1C | 202 to 204
CS(=O)(=O)Nc1ccc(C#N)cc1Nc1ccc(F)cc1F | 167 to 169
CC(=O)OCCOc1ccc(C2C(=O)Oc3c2cc(C(C)(C)C)cc3C(C)(C)C)cc1 (stereo unspecified) | 75 to 78
CCNC(=O)n1ncc2ccc(OC(C)=O)c(CC3CO3)c21 (stereo unspecified) | 110 to 111
Cc1cc(-c2ccc(S(N)(=O)=O)cc2)n(-c2ccc(Cl)cc2)c1 | 171 to 173
COc1cc2ncnc(Nc3cc(Cl)c(O)c(Cl)c3)c2cc1OC | 293 to 295
Sc1ncc(-c2ccccc2)s1 | 207 to 209
COc1ccc(C(=O)CC(C)C)cc1OCCCO | 38 to 40
COC(=O)c1cncn1C1c2ccccc2CC1(C)C (single isomer, unassigned; (-)) | 74 to 76

Structure (SMILES) | melting point [°C]
CCOC(=O)/C=C/c1sc(-n2cnc3ccccc32)nc1C(C)C | 229 to 230
Cn1c(C#N)c(Br)n(-c2ccc(Cl)cc2)c1=O | 185
CC1(C)CCOCN1C(=O)C(Cl)Cl | 105 to 106
N#CCN1CCOC(c2ccccc2)(c2ccccc2)CC1 | 119 to 121
CCNC(=O)N1c2ccccc2-c2noc3c2C1CCC3 (stereo unspecified) | 189
CCN(CC)c1ccc2nc(C)c(C#N)c(O)c2c1 | > 250
COc1ccc2c(c1)cc(C(=O)Nc1nc(-c3cc(OC)c(C)cc3OC)c(CCC3CCCCC3)s1)n2CC(=O)O | 163 to 165
C=Cc1ccc(O)c(-n2nc3ccccc3n2)c1 | 98 to 99
O=C(c1ccc2c(c1)C(=O)N1CCC[C@H]1CO2)N1CCCCC1 | 140
Cc1c(C)n(CC=Cc2ccccc2)c2c(OCc3ccccc3)nncc12 | 132 to 134
CCCCCCCCCc1ccc(CCCC(N)(CO)CCO)cc1 (stereo unspecified) | 71 to 73
Nc1ccc(C2Oc3cc4c(cc3O2)CC2COC(=O)N2N=C4)cc1 (stereo unspecified) | 173 to 175
COCCN1CCN(CCc2ccc(Nc3ncc4c(n3)-c3ccccc3C(c3cccc(Br)c3)C4)cc2)CC1 (stereo unspecified) | 105 to 107
COc1ccc2[nH]c(CC(C)C)c(/C=C/C(=O)c3ccncc3)c2c1 | 217 to 218
CN(C)Cc1cc(C(N)=O)ccc1OCCN(C)Cc1ccc(Cl)cc1 | 123 to 124
CC(=O)N1c2ccccc2-c2c([N+](=O)[O-])cnn2C1(C)C | 182 to 183
Cc1cccc(NC(c2ccccc2O)c2ccc3cccnc3c2O)n1 (stereo unspecified) | 189 to 191
CCCCNC(=O)Nc1ccc(-c2ccncc2)c(C)n1 | 164 to 165
CC(C)(C)c1cc(CS[C@@H]2CCCCCC[C@H]2SCc2cc(C(C)(C)C)cc(C(C)(C)C)c2O)c(O)c(C(C)(C)C)c1 (relative stereo) | 122 to 123
Nc1nc(-c2c(-c3ccccc3)c3ccccc3[nH]c2=O)cs1 | > 220
Cc1nc2ccccc2c2c1OCCN2 | 203 to 204
COc1ccc(C(=O)CC(=O)C(C)(C)C)cc1C(=O)CC(=O)C(C)(C)C | 69.4 to 70.8
CCOC(=O)c1cn2c3c(c(F)c(F)cc3c1=O)OCC2CI (stereo unspecified) | 214 to 217
